pIC50: −log10 of the molar value. In brackets after ≈: the same amount, converted by molar mass.
Assays:
Staphylococcus aureus [1] = experiment: Antibacterial activity against tetracycline-resistant Staphylococcus aureus 191 infected in iv dosed CD-1 mouse assessed as dose required for 3 log bacterial burden reduction administered 1.5 hr post infection measured after 24 hrs; type: functional
Staphylococcus aureus [2] = experiment: Antibacterial activity against tetracycline-resistant Staphylococcus aureus 191 infected in iv dosed CD-1 mouse assessed as dose required for 1 log bacterial burden reduction administered 1.5 hr post infection measured after 24 hrs; type: functional
Escherichia coli [3] = experiment: Antibacterial activity against tetracycline-resistant Escherichia coli 155; type: functional
Enterococcus faecalis [4] = experiment: Antibacterial activity against Enterococcus faecalis ATCC 103 29212; type: functional
[5] = Oral bioavailability in Sprague-Dawley rat at 10 mg/kg by LC/MS-MS analysis; type: ADME, organism-based; settings: in vivo
[6] = AUClast in Sprague-Dawley rat at 1 mg/kg, iv by LC/MS-MS analysis; type: ADME, organism-based; set-up: time 0 - last, dose 1 mg/kg, route intravenous; settings: plasma
Klebsiella pneumoniae [7] = experiment: Antibacterial activity against Klebsiella pneumoniae ATCC 109 13883; type: functional
Enterococcus faecalis [8] = experiment: Antibacterial activity against tetracycline-resistant Enterococcus faecalis 159; type: functional
[9] = AUClast in Sprague-Dawley rat at 10 mg/kg, po by LC/MS-MS analysis; type: ADME, organism-based; set-up: dose 10 mg/kg, route oral, time 0 - last; settings: plasma
Acinetobacter baumannii [10] = experiment: Antibacterial activity against Acinetobacter baumannii ATCC 19606 110; type: functional
Enterobacter cloacae = experiment: Antibacterial activity against Enterobacter cloacae ATCC 108 13047; type: functional
Pseudomonas aeruginosa = experiment: Antibacterial activity against Pseudomonas aeruginosa ATCC 111 27853; type: functional
Rattus norvegicus = experiment: (§1) Clearance in Sprague-Dawley rat at 1 mg/kg, iv by LC/MS-MS analysis; type: ADME, organism-based; set-up: dose 1 mg/kg, route intravenous; settings: in vivo
Streptococcus pneumoniae [11] = experiment: microbe, parasite or virus in culture; type: functional; settings: ATCC 106 49619
Description: Antibacterial activity against Streptococcus pneumoniae ATCC 106 49619

Staphylococcus aureus [12] = experiment: Antibacterial activity against tetracycline- and methicillin-resistant Staphylococcus aureus 161; type: functional
Escherichia coli [13] = experiment: Antibacterial activity against Escherichia coli ATCC 107 25922; type: functional
Bacterial 70S ribosome = experiment: Inhibition of Escherichia coli ribosome-mediated translation after 60 mins by transcription/translation-coupled luciferase reporter gene assay; type: subcellular
Staphylococcus aureus [14] = experiment: Antibacterial activity against Staphylococcus aureus ATCC 101 29213; type: functional
Klebsiella pneumoniae [15] = experiment: Antibacterial activity against tetracycline-resistant Klebsiella pneumoniae 153; type: functional
[16] = Oral bioavailability in human; type: ADME, organism-based; settings: in vivo
Staphylococcus aureus [17] = experiment: Antibacterial activity against tetracycline-resistant Staphylococcus aureus 191 infected in iv dosed CD-1 mouse assessed as reduction in bacterial burden administered 1.5 hr post infection measured after 24 hrs; type: functional
Streptococcus pneumoniae [18] = experiment: Antibacterial activity against tetracycline-resistant Streptococcus pneumoniae 160; type: functional
Escherichia coli [19] = experiment: Antibacterial activity against tetracycline-resistant Escherichia coli 133 infected in iv dosed CD-1 mouse assessed as reduction in bacterial burden administered 1 hr post infection measured after 24 hrs; type: functional
Escherichia coli [20] = experiment: Antibacterial activity against tetracycline-resistant Escherichia coli 133 infected in iv dosed CD-1 mouse assessed as protection from infection administered 1 hr post infection measured after 24 hrs; type: functional; settings: Escherichia coli, 133, iv; read-out: PD50
Staphylococcus aureus [21] = experiment: microbe, parasite or virus in culture; type: functional; settings: 158
[22] = Elimination half life in Sprague-Dawley rat at 10 mg/kg, po by LC/MS-MS analysis; type: ADME, organism-based; set-up: dose 10 mg/kg, route oral; settings: in vivo, read-out: beta t1/2 (converted)
Enterococcus faecalis [23] = experiment: Ratio of tigecycline MIC to compound MIC for Enterococcus faecalis ATCC 103 29212; type: functional
Staphylococcus aureus [24] = experiment: Ratio of tigecycline MIC to compound MIC for Staphylococcus aureus ATCC 101 29213; type: functional
[25] = as §1; type: ADME, organism-based; set-up: dose 1 mg/kg, route intravenous; settings: Sprague-Dawley, in vivo
Escherichia coli [26] = experiment: Ratio of tigecycline MIC to compound MIC for Escherichia coli ATCC 107 25922; type: functional
Escherichia coli [27] = experiment: Ratio of tetracycline IC50 to compound IC50 for Escherichia coli ribosome-mediated translation; type: subcellular
[28] = Apparent volume of distribution in Sprague-Dawley rat at 1 mg/kg, iv by LC/MS-MS analysis; settings: in vivo
[29] = Elimination half life in Sprague-Dawley rat at 1 mg/kg, iv by LC/MS-MS analysis; type: ADME, organism-based; set-up: dose 1 mg/kg, route intravenous; settings: in vivo, read-out: beta t1/2 (converted)
Acinetobacter baumannii [30] = experiment: Ratio of tigecycline MIC to compound MIC for Acinetobacter baumannii ATCC 19606 110; type: functional

Structure (SMILES) | Activity (Staphylococcus aureus [1]) [mg/kg] | Activity (Staphylococcus aureus [2]) [mg/kg] | MIC (Escherichia coli [3]) [µg/mL] | MIC (Enterococcus faecalis [4]) [µg/mL] | bioavailability [5] [%] | AUC(0-t) [6] [ng·h/mL] | MIC (Klebsiella pneumoniae [7]) [µg/mL] | MIC (Enterococcus faecalis [8]) [µg/mL] | AUC(0-t) [9] [ng·h/mL] | MIC (Acinetobacter baumannii [10]) [µg/mL] | MIC (Enterobacter cloacae) [µg/mL] | MIC (Pseudomonas aeruginosa) [µg/mL] | MIC (Streptococcus pneumoniae [11]) [µg/mL] | MIC (Staphylococcus aureus [12]) [µg/mL] | MIC (Escherichia coli [13]) [µg/mL] | MIC (Staphylococcus aureus [14]) [µg/mL] | MIC (Klebsiella pneumoniae [15]) [µg/mL] | MIC (Streptococcus pneumoniae [18]) [µg/mL] | MIC (Staphylococcus aureus [21]) [µg/mL] | other results
CN[C@H](CC(C)C)C(=O)N[C@H]1C(=O)N[C@@H](CC(N)=O)C(=O)N[C@H]2C(=O)N[C@H]3C(=O)N[C@H](C(=O)N[C@H](C(=O)O)c4cc(O)cc(O)c4-c4cc3ccc4O)[C@H](O)c3ccc(c(Cl)c3)Oc3cc2cc(c3O[C@@H]2O[C@H](CO)[C@@H](O)[C@H](O)[C@H]2O[C@H]2C[C@](C)(N)[C@H](O)[C@H](C)O2)Oc2ccc(cc2Cl)[C@H]1O [VANCOMYCIN] | 10 | 0.75 |  |  |  |  |  |  |  |  |  |  |  |  |  |  |  |  |  | 
CN(C)[C@@H]1C(O)=C(C(N)=O)C(=O)[C@@]2(O)C(O)=C3C(=O)c4c(O)cccc4[C@@](C)(O)[C@H]3C[C@@H]12 [TETRACYCLINE] |  |  | > 64 | 16 (≈ 36 µM) | 14.9 | 3080 | 2 (≈ 4.5 µM) | 64 (≈ 144 µM) | 4540 | 1 (≈ 2.25 µM) | 1 (≈ 2.25 µM) | 16 (≈ 36 µM) | 0.25 (≈ 0.563 µM) | 64 (≈ 144 µM) | > 1 | 0.125 (≈ 0.281 µM) | > 64 |  |  | CL (Rattus norvegicus): 9.03 mL/min/kg; pIC50 (Bacterial 70S ribosome): 5.34; bioavailability [16]: 60%
CN(C)c1cc(NC(=O)CNC(C)(C)C)c(O)c2c1C[C@H]1C[C@H]3[C@H](N(C)C)C(O)=C(C(N)=O)C(=O)[C@@]3(O)C(O)=C1C2=O [TIGECYCLINE] | 17.3 | 3 | 1 (≈ 1.71 µM) | 0.0625 (≈ 0.107 µM) | 1 | 1050 | 0.25 (≈ 0.427 µM) | 0.0625 (≈ 0.107 µM) | 107 | 0.5 (≈ 0.854 µM) | 0.25 (≈ 0.427 µM) | 16 (≈ 27.3 µM) | 0.0156 (≈ 0.0266 µM) | 0.125 (≈ 0.213 µM) | 0.125 (≈ 0.213 µM) | 0.0625 (≈ 0.107 µM) | 1 (≈ 1.71 µM) | 0.0156 (≈ 0.0266 µM) | 0.125 (≈ 0.213 µM) | MIC (Staphylococcus aureus [17]): 0.25 µg/mL (≈ 0.427 µM); MIC (Escherichia coli [19]): 0.125 µg/mL (≈ 0.213 µM); ED50 (Escherichia coli [20]): 3.5 mg/kg; half-life [22]: 3.98 h
CN(C)[C@@H]1C(O)=C(C(N)=O)C(=O)[C@@]2(O)C(O)=C3C(=O)c4c(O)c(NC(=O)CN5CCCC5)cc(F)c4C[C@H]3C[C@@H]12 [ERAVACYCLINE] | 3 | 0.6 | 1 (≈ 1.79 µM) | 0.0156 (≈ 0.0279 µM) | 1.7 | 1770 | 0.125 (≈ 0.224 µM) | 0.0156 (≈ 0.0279 µM) | 295 | 0.0312 (≈ 0.0559 µM) | 0.125 (≈ 0.224 µM) | 8 (≈ 14.3 µM) | 0.0156 (≈ 0.0279 µM) | 0.0156 (≈ 0.0279 µM) | 0.0156 (≈ 0.0279 µM) | 0.0156 (≈ 0.0279 µM) | 0.5 (≈ 0.895 µM) | 0.0156 (≈ 0.0279 µM) | 0.0156 (≈ 0.0279 µM) | MIC (Staphylococcus aureus [17]): 0.25 µg/mL (≈ 0.448 µM); Ratio (Enterococcus faecalis [23]): 4; Ratio (Staphylococcus aureus [24]): 4; clearance [25]: 9.4 mL/min/kg; Ratio (Escherichia coli [26]): 4; Ratio IC50 (Escherichia coli [27]): 7; Vd [28]: 3.2 L/kg; half-life [29]: 4 h; MIC (Escherichia coli [19]): 0.125 µg/mL (≈ 0.224 µM); ED50 (Escherichia coli [20]): 1.3 mg/kg; Ratio (Acinetobacter baumannii [30]): 4; pIC50 (Bacterial 70S ribosome): 6.21; half-life [22]: 6.9 h
CN(C)[C@@H]1C(O)=C(C(N)=O)C(=O)[C@@]2(O)C(O)=C3C(=O)c4c(O)c(NC(=O)CN5Cc6ccccc6C5)cc(F)c4C[C@H]3C[C@@H]12 |  |  | 4 (≈ 6.59 µM) | 0.25 (≈ 0.412 µM) |  |  | 4 (≈ 6.59 µM) | 0.5 (≈ 0.824 µM) |  | 0.125 (≈ 0.206 µM) | 32 (≈ 52.8 µM) | > 32 | 0.125 (≈ 0.206 µM) | 0.5 (≈ 0.824 µM) | 2 (≈ 3.3 µM) | 0.25 (≈ 0.412 µM) | 32 (≈ 52.8 µM) | 0.125 (≈ 0.206 µM) | 0.25 (≈ 0.412 µM) | 
CN(C)[C@@H]1C(O)=C(C(N)=O)C(=O)[C@@]2(O)C(O)=C3C(=O)c4c(O)c(NC(=O)CNC(C)(C)C)cc(F)c4C[C@H]3C[C@@H]12 |  |  | 2 (≈ 3.57 µM) | 0.0625 (≈ 0.111 µM) |  |  | 1 (≈ 1.78 µM) | 0.125 (≈ 0.223 µM) |  | 0.5 (≈ 0.892 µM) | 1 (≈ 1.78 µM) | 16 (≈ 28.5 µM) | 0.0156 (≈ 0.0278 µM) | 0.25 (≈ 0.446 µM) | 0.25 (≈ 0.446 µM) | 0.125 (≈ 0.223 µM) | 2 (≈ 3.57 µM) | 0.0156 (≈ 0.0278 µM) | 0.0625 (≈ 0.111 µM) | 
CN(C)[C@@H]1C(O)=C(C(N)=O)C(=O)[C@@]2(O)C(O)=C3C(=O)c4c(O)c(NC(=O)CNCC(F)(F)F)cc(F)c4C[C@H]3C[C@@H]12 |  |  | > 32 | 2 (≈ 3.41 µM) |  |  | 32 (≈ 54.6 µM) | 4 (≈ 6.82 µM) |  | > 2 | > 32 | > 32 | 0.5 (≈ 0.853 µM) | 2 (≈ 3.41 µM) | > 16 | 1 (≈ 1.71 µM) | > 32 | 1 (≈ 1.71 µM) | 4 (≈ 6.82 µM) | 
CN(C)[C@@H]1C(O)=C(C(N)=O)C(=O)[C@@]2(O)C(O)=C3C(=O)c4c(O)c(NC(=O)CN5CC[C@@H](O)C5)cc(F)c4C[C@H]3C[C@@H]12 |  |  | > 32 | 2 (≈ 3.48 µM) |  |  | 16 (≈ 27.8 µM) | 2 (≈ 3.48 µM) |  | 32 (≈ 55.7 µM) | 16 (≈ 27.8 µM) | > 32 | 0.25 (≈ 0.435 µM) | 2 (≈ 3.48 µM) | 4 (≈ 6.96 µM) | 2 (≈ 3.48 µM) | > 32 | 0.5 (≈ 0.87 µM) | 16 (≈ 27.8 µM) | 
